Reference: BindingDB's records for PubMed 10869375 (R. W. Johnson Pharmaceutical Research Institute, 2000)
Values joined by “and” are separate entries in the source; they are usually repeats but may differ in a detail not shown here. Identical values can stand only once.

Assays:
Hrh3 protein = Hrh3 protein (Rattus norvegicus, UniProt Q5PPG3)
Histamine H3 receptor = Histamine H3 receptor (Homo sapiens, UniProt Q9Y5N1)
Sequence of Histamine H3 receptor (Q9Y5N1 whole entry): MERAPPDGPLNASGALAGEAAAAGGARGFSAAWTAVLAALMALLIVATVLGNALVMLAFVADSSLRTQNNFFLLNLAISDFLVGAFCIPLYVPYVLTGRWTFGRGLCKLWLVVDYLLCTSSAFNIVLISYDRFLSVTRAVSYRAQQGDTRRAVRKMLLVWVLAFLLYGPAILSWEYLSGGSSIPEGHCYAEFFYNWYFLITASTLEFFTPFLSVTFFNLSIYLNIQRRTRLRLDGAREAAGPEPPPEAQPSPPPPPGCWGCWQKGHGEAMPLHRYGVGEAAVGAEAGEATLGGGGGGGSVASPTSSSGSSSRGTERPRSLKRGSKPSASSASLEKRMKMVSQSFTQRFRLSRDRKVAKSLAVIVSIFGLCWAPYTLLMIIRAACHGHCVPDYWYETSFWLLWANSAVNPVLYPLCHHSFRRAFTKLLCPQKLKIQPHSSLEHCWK

Sequence of Hrh3 protein (Q5PPG3 whole entry): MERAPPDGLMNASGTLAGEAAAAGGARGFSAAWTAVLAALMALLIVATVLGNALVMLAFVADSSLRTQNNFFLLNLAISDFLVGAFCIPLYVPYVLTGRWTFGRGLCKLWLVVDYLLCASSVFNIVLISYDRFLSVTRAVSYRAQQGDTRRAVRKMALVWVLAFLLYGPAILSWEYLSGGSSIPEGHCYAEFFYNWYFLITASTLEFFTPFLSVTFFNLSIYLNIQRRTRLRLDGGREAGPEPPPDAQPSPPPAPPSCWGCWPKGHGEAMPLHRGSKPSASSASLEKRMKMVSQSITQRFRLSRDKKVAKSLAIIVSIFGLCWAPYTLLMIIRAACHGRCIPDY

Structure (SMILES) | Ki (Hrh3 protein) | Ki (Histamine H3 receptor)
NCCc1c[nH]cn1 [[3H]histamine] | 12 nM and 13.2 nM | –
CN1CCN(C2=c3ccccc3=Nc3ccc(Cl)cc3N2)CC1 [6-chloro-10-(4-methylpiperazin-1-yl)-2,9-diazatricyclo[9.4.0.0^{3,8}]pentadeca-1,3(8),4,6,10,12,14-heptaene] | 3000 nM and 1750 nM | –
c1nc(CC2CCNCC2)c[nH]1 [4-(1H-imidazol-4-ylmethyl)piperidine] | 0.5 nM and 1.4 nM | 1.6 nM
N=C(N)SCCc1cnc[nH]1 [2-(3H-imidazol-4-yl)ethylsulfanylmethanimidamide] | 0.2 nM | 0.6 nM
CNCCc1c[nH]cn1 [N(alpha)-Methylhistamine] | 1.2 nM and 1.5 nM | 2.4 nM
S=C(NC1CCCCC1)N1CCC(c2cnc[nH]2)CC1 | 10.2 nM and 4.2 nM | –
